# Where a SMILES comes first, the peptide text is derived from it. Where no end group is shown, it is not given here. The star is where a group is joined. C16 diacid = O=C(O)CCCCCCCCCCCCCCC(=O)*
# How the values were obtained:
# Assay type in all cases: cell-based
# human GIP receptor [1] = biological target: T1, human GIP receptor (Homo sapiens, UniProt P48546); experiment: cAMP agonism (CisBio cAMP Dynamic 2 HTRF assay); settings: HEK293, read-out: cAMP agonism, % Efficacy, Table 1C, HEK-293 cells
# T1 sequence (P48546 22-466): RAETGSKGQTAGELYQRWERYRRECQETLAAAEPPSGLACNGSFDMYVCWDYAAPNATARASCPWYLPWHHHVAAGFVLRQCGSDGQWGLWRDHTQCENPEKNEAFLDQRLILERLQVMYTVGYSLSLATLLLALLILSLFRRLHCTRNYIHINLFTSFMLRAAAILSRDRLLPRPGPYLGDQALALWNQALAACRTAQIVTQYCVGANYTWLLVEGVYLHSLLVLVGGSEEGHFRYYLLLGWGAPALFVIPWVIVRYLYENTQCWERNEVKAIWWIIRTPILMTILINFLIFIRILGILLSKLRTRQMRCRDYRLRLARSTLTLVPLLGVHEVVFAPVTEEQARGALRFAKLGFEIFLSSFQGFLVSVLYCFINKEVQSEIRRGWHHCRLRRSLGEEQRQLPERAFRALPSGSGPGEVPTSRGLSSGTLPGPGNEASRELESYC
# Experimental: To test for agonistic properties at the GIP receptor, compounds were diluted and added to cells as described above and incubated for 30 min at 37° C. The resulting increase in intracellular cAMP was determined using the CisBio cAMP Dynamic 2 HTRF Assay Kit as described above.
# human GIP receptor [2] = biological target: T1, human GIP receptor; experiment: cAMP antagonism (CisBio cAMP Dynamic 2 HTRF assay); parameters: pCMV-Script vector; settings: Table 1C; CisBio; HEK-293 cells
# Experimental: The in vitro functional activity of compounds towards human GIP receptor can also be determined in HEK-293 cells transiently expressing the receptor. On the day of the assay, cells were resuspended in HBSS buffer (Gibco, 14025-50) supplemented with 20 mM HEPES (Gibco, 15630-106), 0,1% Pluronic F-68 (Gibco, 24040-032) and 0,1% casein (Sigma, C4765), and plated in 384-well plates at a density of 5000 cells/well. The GIP peptide analogues of the present disclosure were diluted in HBSS buffer supplemented with 20 mM HEPES, 0,1% pluronic, 0,1% casein and 500 uM IBMX. […] The resulting decrease in intracellular cAMP was quantitatively determined using the CisBio cAMP Dynamic 2 HTRF Assay Kit. The assay is based on a competition between native cAMP produced by cells and cAMP labeled with the dye d2 for binding to a cryptate labeled antibody. The specific signal (i.e. energy transfer signal) is inversely proportional to the concentration of cAMP in the sample.
# The cAMP-d2 conjugate and the antibody anti-cAMP-Cryptate, both diluted in lysis buffer provided in the kit, were added to the cells according to the manufacturer's protocol. The resulting competitive assay was incubated for 60 minutes at room temperature, and the signal was detected by using a PerkinElmer Envision® instrument with excitation at 320 nm and emission at 665 nm and 620 nm. The HTRF ratio (emission at 665 nm/620 nm*10,000) is inversely proportional to the amount of cAMP present and is converted to nM cAMP per well using a cAMP standard curve. The dose-response curves were fitted using the non-linear regression analysis (four-logistic parameter equation) in GraphPad Prism, whereby pIC50 values were estimated.
# human GIP receptor [3] = biological target: T1, human GIP receptor; experiment: cAMP accumulation, antagonism (DiscoveRx HitHunter cAMP XS assay); parameters: host or cells: COS-7 (transient, calcium phosphate; pCMV-Script vector); settings: Table 2, truncated GIP antagonists
# Experimental: Transient transfected COS-7 cells expressing the human GIP receptor were seeded in white 96-well plates with a density of 3.5*10^4/well. The day after, the cells were washed twice with Hepes buffered saline (HBS) buffer and incubated with HBS and 1 mM 3-isobutyl-1-methylxanthine (IBMX) for 30 min at 37° C. To test for agonistic properties, ligands were added and incubated for 30 min at 37° C. In order to test for antagonistic properties, the cells were preincubated with the antagonists for 10 min prior to the addition of the agonist and subsequent incubated for 20 additional min. The HitHunter™ cAMP XS assay (DiscoveRx) was carried out according to the manufacturer's instructions.
# In order to develop a GIP receptor antagonist with improved antagonistic properties, individual amino acid substitutions were conducted on GIP(3-30)NH2 and in particular at positions: 16, 18, 30 or 3, 16, 18, 30. The obtained peptides were lipidated at position 18 directly or via a linker. Both the agonistic and antagonistic profiles of the compounds were tested in cAMP accumulation experiments done in transiently transfected COS-7 cells expressing the human GIP receptor. To investigate if these mutated analogues still retained their antagonistic properties, their ability to inhibit a GIP-mediated cAMP response corresponding to 50-80% of maximum activation was examined.
Compound,Emax (human GIP receptor [1]) [%],"cAMP antagonism, % inhib (human GIP receptor [2]) [%]","cAMP antagonism, % inhib (human GIP receptor [3]) [%]","IC50 (human GIP receptor [3]; cAMP antagonism, nM (IC50)) [nM]","cAMP antagonism, nM (IC50) (human GIP receptor [3])"
CC[C@H](C)[C@H](NC(=O)[C@H](CO)NC(=O)[C@H](Cc1ccc(O)cc1)NC(=O)[C@H](CC(=O)O)NC(=O)[C@@H](N)CO)C(=O)N[C@@H](C)C(=O)N[C@@H](CCSC)C(=O)N[C@@H](CC(=O)O)C(=O)N[C@@H](CCCCN)C(=O)N[C@H](C(=O)N[C@@H](CCCCNC(=O)CCCCCCCCCCCCCCC(=O)O)C(=O)N[C@@H](CCC(N)=O)C(=O)N[C@@H](CCC(N)=O)C(=O)N[C@@H](CC(=O)O)C(=O)N[C@@H](Cc1ccccc1)C(=O)N[C@H](C(=O)N[C@@H](CC(N)=O)C(=O)N[C@@H](Cc1c[nH]c2ccccc12)C(=O)N[C@@H](CC(C)C)C(=O)N[C@@H](CC(C)C)C(=O)N[C@@H](C)C(=O)N[C@@H](CCC(N)=O)C(=O)N[C@@H](CCCCN)C(N)=O)C(C)C)[C@@H](C)CC [AT355] (H-SDYSIAMDKIK(C16 diacid)QQDFVNWLLAQK-NH2; N-terminus assumed),0,65,100.0,,
CC[C@H](C)[C@H](N)C(=O)N[C@@H](CO)C(=O)N[C@@H](CC(=O)O)C(=O)N[C@@H](Cc1ccc(O)cc1)C(=O)N[C@@H](CO)C(=O)N[C@H](C(=O)N[C@@H](C)C(=O)N[C@@H](CCSC)C(=O)N[C@@H](CC(=O)O)C(=O)N[C@@H](CCCCN)C(=O)N[C@H](C(=O)N[C@@H](CCCCNC(=O)CCCCCCCCCCCCCCC(=O)O)C(=O)N[C@@H](CCC(N)=O)C(=O)N[C@@H](CCC(N)=O)C(=O)N[C@@H](CC(=O)O)C(=O)N[C@@H](Cc1ccccc1)C(=O)N[C@H](C(=O)N[C@@H](CC(N)=O)C(=O)N[C@@H](Cc1c[nH]c2ccccc12)C(=O)N[C@@H](CC(C)C)C(=O)N[C@@H](CC(C)C)C(=O)N[C@@H](C)C(=O)N[C@@H](CCC(N)=O)C(=O)N[C@@H](CCCCN)C(N)=O)C(C)C)[C@@H](C)CC)[C@@H](C)CC [AT354] (H-ISDYSIAMDKIK(C16 diacid)QQDFVNWLLAQK-NH2; N-terminus assumed),0,91,100.0,10,
CC[C@H](C)[C@H](NC(=O)[C@H](CO)NC(=O)[C@@H](N)Cc1ccc(O)cc1)C(=O)N[C@@H](C)C(=O)N[C@@H](CCSC)C(=O)N[C@@H](CC(=O)O)C(=O)N[C@@H](CCCCN)C(=O)N[C@H](C(=O)N[C@@H](CCCCNC(=O)CCCCCCCCCCCCCCC(=O)O)C(=O)N[C@@H](CCC(N)=O)C(=O)N[C@@H](CCC(N)=O)C(=O)N[C@@H](CC(=O)O)C(=O)N[C@@H](Cc1ccccc1)C(=O)N[C@H](C(=O)N[C@@H](CC(N)=O)C(=O)N[C@@H](Cc1c[nH]c2ccccc12)C(=O)N[C@@H](CC(C)C)C(=O)N[C@@H](CC(C)C)C(=O)N[C@@H](C)C(=O)N[C@@H](CCC(N)=O)C(=O)N[C@@H](CCCCN)C(N)=O)C(C)C)[C@@H](C)CC [AT357] (H-YSIAMDKIK(C16 diacid)QQDFVNWLLAQK-NH2; N-terminus assumed),0,40,100.0,,
"AT356: GIP 9-30, C-term NH2, C16-diacid at position 18, [H18K] (DYSIAMDKIK(C16 diacid)QQDFVNWLLAQK-NH2; N-terminus assumed; SMILES CC[C@H](C)[C@H](NC(=O)[C@H](CO)NC(=O)[C@H](Cc1ccc(O)cc1)NC(=O)[C@@H](N)CC(=O)O)C(=O)N[C@@H](C)C(=O)N[C@@H](CCSC)C(=O)N[C@@H](CC(=O)O)C(=O)N[C@@H](CCCCN)C(=O)N[C@H](C(=O)N[C@@H](CCCCNC(=O)CCCCCCCCCCCCCCC(=O)O)C(=O)N[C@@H](CCC(N)=O)C(=O)N[C@@H](CCC(N)=O)C(=O)N[C@@H](CC(=O)O)C(=O)N[C@@H](Cc1ccccc1)C(=O)N[C@H](C(=O)N[C@@H](CC(N)=O)C(=O)N[C@@H](Cc1c[nH]c2ccccc12)C(=O)N[C@@H](CC(C)C)C(=O)N[C@@H](CC(C)C)C(=O)N[C@@H](C)C(=O)N[C@@H](CCC(N)=O)C(=O)N[C@@H](CCCCN)C(N)=O)C(C)C)[C@@H](C)CC)",,,,,No antagonism
